Results: patent US20070265451A1, “Process for the preparation of oxazolidinones and method of use thereof” (Board of Trustees of Michigan State University, priority 2001, published 2007)
Values after ≈ are worked out from the molar mass of the structure shown.

Tests used:
[1] = system: Staphylococcus aureus 29213; test: Broth microdilution MIC, Staphylococcus aureus ATCC 29213; format: cell-based; details: for MIC: Staphylococcus aureus, ATCC29213, Table 2, read-out: MIC(90-100) SA-ATCC 29213
Excerpt: See, NCCLS document M7-A5. Methods for Dilution Antimicrobial Susceptibility Tests for Bacteria That Grow Aerobically; Approved Standard-Fifth Edition. Volume 20, Number 2. January 2000, (ISBN 1-56238-394-9) and Lorian V. Antibiotics. Laboratory Medicine. 4th ed. Baltimore: Williams and Wilkins, pp. 52-111 (1996). For subsequent testing, the following strains have been used: Staphylococcus aureus NRS4 (992; HIP5836; New Jersey) (Smith et al., New Engl. J. Med. 340: 493-501 (1999); Tenover et al., J. Clin. Microbiol. 36: 1020-1027 (1998)), Staphylococcus aureus NRS3 (963sm; HIP5827; Michigan) (Smith et al., ibid.; Tenover et al., ibid.), Staphylococcus aureus NRS103 (Becker) (Karakawa and Vann, Sem. Infect. Dis. 4: 285 (1982), Staphylococcus aureus NRS102 (Reynolds) Karakawa and Vann, ibid; McMurray et al., JID 162: 759-762 (1990)), Staphylococcus epidermidis NRS101 (ATCC 35984), Streptococcus pneumoniae (ATCC 49619), Enterococcus faecalis (ATCC 51299), and Staphylococcus aureus (ATCC 43300.
Stock cultures of these strains were obtained by seeding colonies from overnight streak plates (Tryptic Soy Agar II (TSAII) and 5% sheep's blood (SB) agar plates: Becton Dickinson, CA#2211261) into sterile Mueller-Hinton Broth (MHB)(Becton Dickinson, CA#211443) and growing the suspensions to mid-late log phase in 13 mL screw-cap tubes. Glycerol (Sigma, CA#G-6279) was sterilized by autoclaving for 15 minutes at 121° C. in 6 mL volumes, and then stored at 2-8° C. This was diluted to 20% in dH2O, and then added 1:1 (250 μL:250 μL, 10% final glycerol concentration) to the logarithmically growing bacterial suspension of each strain. Tubes were frozen and stored at −70° C. Purity of the stock cultures was tested by thawing one tube of each strain in a water bath at 37° C. and plating them on TSAII with 5% SB. Plates were incubated overnight at 37° C. and colonies were examined for morphology. Growth curves and approximate CFU/mL were also obtained.
High purity substituted oxazolidinones prepared according to the method of the present invention and a ZYVOX standard (ZYVOX is a trade name for linezolid available from Pharmacia Corporation) were provided by Synthon Corporation, Monmouth Junction, N.J. Compounds were dissolved at 10 mg/mL in DMSO, as after a dilution of approx. 39.0 to reach the desired final starting concentration of 256 ug/ml, the concentration of DMSO is approximately 2.5%. Compounds were then stored at room temperature (25° C.) in the dark.
Antimicrobial susceptibility screening was as follows. All compounds were initially screened for activity in duplicate at 256 μg/mL (2.5% DMSO), including ZYVOX, the positive control for antimicrobial activity. A single well of bacterially inoculated 2.5% DMSO served as a positive control for bacterial growth, while a well of DMSO inoculated with of 50 μL of sterile 0.9% saline served as a negative growth control. Controls were prepared on every microplate, so that 46 was the maximum number of compounds that were screened per plate. Broth was pipetted into sterile microcentrifuge tubes, to which the compounds were then added (1:19.53 dilution or 2× final concentration). Each tube was vortexed, and 50 μL was immediately transferred to the microplate wells for each strain. Solubility was assessed by visual observation. MB (medium broth solubility) was recorded if the solution appeared only slightly cloudy. LB (low broth solubility) was recorded if the solution was extremely cloudy, and especially if larger, clumpy precipitates formed. Bacteria were grown as described above, although absorbance was measured at 650 nm and bacteria were diluted to an initial OD of 0.12-0.15. Bacteria were then further diluted 1:100 with 0.9% sterile saline. Within 15 minutes of this final dilution, 50 μL of this suspension was added to each well for a final volume of […], and a final bacterial concentration of 1×10^5 CFU/mL (except for the negative control well). Plates were grown as above and all observations were recorded. […]

[2] = system: Enterococcus faecalis 29212; test: Broth microdilution MIC, Enterococcus faecalis ATCC 29212; format: cell-based; details: for MIC: Enterococcus faecalis, ATCC29212, Table 2, read-out: MIC(90-100) EF-ATCC 29212

SMILES	MIC [1]	further results
O=C1O[C@H](COS(=O)(=O)c2ccc([N+](=O)[O-])cc2)CN1C(=O)C1CC1 [Compound 250]	250 µg/mL (≈ 675 µM)	
CCC#CCN1CC(COS(=O)(=O)c2ccc([N+](=O)[O-])cc2)OC1=O (centres unmarked) [Compound 294]	31.3 µg/mL (≈ 85 µM)	MIC [2]: 250 µg/mL (≈ 679 µM)
CCC#CCN1C[C@H](COS(=O)(=O)c2ccc(Cl)c3nonc23)OC1=O [Compound 924]	256 µg/mL (≈ 640 µM)	
CN1CC(COS(=O)(=O)c2ccc([N+](=O)[O-])cc2)OC1=O (centres unmarked) [Compound 266]	15.6 µg/mL (≈ 49.3 µM)	
CCOC(=O)CC(C)(C)C(=O)CN1C[C@@H](COS(=O)(=O)c2ccc(Cl)c3nonc23)OC1=O [Compound 291]	250 µg/mL (≈ 496 µM)	
O=C1NCC(COS(=O)(=O)c2ccc(Cl)cc2[N+](=O)[O-])O1 (centres unmarked) [Compound 1998]	16 µg/mL (≈ 47.5 µM)	MIC [2]: 64 µg/mL (≈ 190 µM)
CCCCN1CC(COS(=O)(=O)c2ccc(Cl)c3nonc23)OC1=O (centres unmarked) [Compound 285]		MIC(90-100) SA-ATCC 29213 ([1]; Table 2): 62.5 µg/mL (≈ 160 µM); MIC(90-100) EF-ATCC 29212 ([2]; Table 2): 250 µg/mL (≈ 641 µM)
C#CCN1CC(COS(=O)(=O)c2ccc([N+](=O)[O-])cc2)OC1=O (centres unmarked) [Compound 236]	31.3 µg/mL (≈ 92 µM)	
CN(C)C(=O)/C=C/N1C[C@@H](COS(=O)(=O)c2ccc([N+](=O)[O-])cc2)OC1=O [Compound 1632]	16 µg/mL (≈ 40.1 µM)	MIC [2]: 64 µg/mL (≈ 160 µM)
O=C1O[C@@H](COS(=O)(=O)c2ccc([N+](=O)[O-])cc2)CN1C(=O)C1CC1 [Compound 929]	64 µg/mL (≈ 173 µM)	
C=CCN1CC(COS(=O)(=O)c2ccc([N+](=O)[O-])cc2)OC1=O (centres unmarked) [Compound 108]	62.5 µg/mL (≈ 183 µM)	
O=C(CN1C[C@@H](COS(=O)(=O)c2ccc(Cl)c3nonc23)OC1=O)C1CC1 [Compound 260]	250 µg/mL (≈ 601 µM)	
CCOC(=O)/C=C/N1CC(COSc2ccc([N+](=O)[O-])cc2)OC1=O (centres unmarked) [Compound 2025]	64 µg/mL (≈ 174 µM)	MIC [2]: 32 µg/mL (≈ 86.9 µM)
O=C1OC(COSc2ccc([N+](=O)[O-])cc2)CN1Cc1ccc([N+](=O)[O-])cc1 (centres unmarked) [Compound 2017]	16 µg/mL (≈ 39.5 µM)	MIC [2]: 8 µg/mL (≈ 19.7 µM)
CCOC(=O)/C=C/N1CC(COS(=O)(=O)C2=CC=C([N+](=O)[O-])CC2)OC1=O (centres unmarked) [Compound 388]	125 µg/mL (≈ 311 µM)	
O=C1O[C@@H](COS(=O)(=O)c2ccc([N+](=O)[O-])cc2)CN1C(=O)c1ccco1 [Compound 942]	32 µg/mL (≈ 80.7 µM)	
CC#CCN1CC(COS(=O)(=O)c2ccc([N+](=O)[O-])cc2)OC1=O (centres unmarked) [Compound 110]	31.3 µg/mL (≈ 88.3 µM)	
CCOC(=O)CC(C)(C)C(=O)CN1C[C@H](COS(=O)(=O)c2ccc([N+](=O)[O-])cc2)OC1=O [Compound 921]	256 µg/mL (≈ 542 µM)	
CC(C)N1C[C@@H](CNS(=O)(=O)c2ccc([N+](=O)[O-])cc2)OC1=O [Compound 860]	64 µg/mL (≈ 186 µM)	
CCN1C[C@@H](COS(=O)(=O)c2ccc(Cl)c3nonc23)OC1=O [Compound 1196]	256 µg/mL (≈ 708 µM)	MIC [2]: 128 µg/mL (≈ 354 µM)
O=C(OCC1CN(Cc2ccc(Br)cc2)C(=O)O1)Oc1ccc([N+](=O)[O-])cc1 (centres unmarked) [Compound 2020]	64 µg/mL (≈ 142 µM)	MIC [2]: 124 µg/mL (≈ 275 µM)
CCOC(=O)/C=C/N1CC(COS(=O)(=O)c2ccc(Cl)c([N+](=O)[O-])c2)OC1=O (centres unmarked) [Compound 695]	62.5 µg/mL (≈ 144 µM)	
COC(=O)CN1C[C@@H](COS(=O)(=O)c2ccc(Cl)c([N+](=O)[O-])c2)OC1=O [Compound 1058]	256 µg/mL (≈ 626 µM)	

SMILES	MIC [1]	further results
CC(=O)CN1C[C@@H](COS(=O)(=O)c2ccc(Cl)c([N+](=O)[O-])c2)OC1=O [Compound 1081]	256 µg/mL (≈ 652 µM)	
COc1ccc(C(=O)CN2CC(COS(=O)(=O)c3ccc(Cl)c4nonc34)OC2=O)cc1 (centres unmarked) [Compound 254]	125 µg/mL (≈ 259 µM)	
COc1ccc(C(=O)CN2CC(COS(=O)(=O)c3sc(NC(C)=O)nc3C)OC2=O)c(OC)c1 (centres unmarked) [Compound 324]	62.5 µg/mL (≈ 122 µM)	MIC [2]: 250 µg/mL (≈ 487 µM)
O=C1O[C@@H](COc2cccc3c(O)cccc23)CN1c1ccc([N+](=O)[O-])cc1 [Compound 1960]	32 µg/mL (≈ 84.1 µM)	MIC [2]: 8 µg/mL (≈ 21 µM)
COC(=O)CN1C[C@@H](COS(=O)(=O)c2ccc(Cl)c3nonc23)OC1=O [Compound 674]	250 µg/mL (≈ 616 µM)	MIC [2]: 125 µg/mL (≈ 308 µM)
O=C1NCC(COS(=O)(=O)c2ccc([N+](=O)[O-])cc2)O1 (centres unmarked) [Compound 1985]	8 µg/mL (≈ 26.5 µM)	MIC [2]: 124 µg/mL (≈ 410 µM)
O=C1O[C@@H](COc2ccc3c4c2CCCN4CCC3)CN1c1ccc([N+](=O)[O-])cc1 [Compound 1965]	32 µg/mL (≈ 78.2 µM)	MIC [2]: 8 µg/mL (≈ 19.5 µM)
COC(=O)CN1C[C@@H](COS(=O)(=O)c2ccc([N+](=O)[O-])cc2)OC1=O [Compound 669]	62.5 µg/mL (≈ 167 µM)	
O=C1O[C@H](COS(=O)(=O)c2ccc([N+](=O)[O-])cc2)CN1C(=O)c1ccco1 [Compound 334]	62.5 µg/mL (≈ 158 µM)	
CC(=O)OC(C(=O)OC[C@@H]1CN(C)C(=O)O1)c1ccccc1 (some centres unmarked) [Compound 1097]	32 µg/mL (≈ 104 µM)	
CC(=O)CN1C[C@@H](COS(=O)(=O)c2ccc([N+](=O)[O-])cc2)OC1=O [Compound 1063]	16 µg/mL (≈ 44.7 µM)	
CCCCN1CC(COS(=O)(=O)c2cccc3nsnc23)OC1=O (centres unmarked) [Compound 905]	256 µg/mL (≈ 689 µM)	
CC(C)(C)C(=O)CCN1C[C@@H](COS(=O)(=O)c2ccc([N+](=O)[O-])cc2)OC1=O [Compound 272]	250 µg/mL (≈ 603 µM)	
O=C(CN1C[C@@H](COS(=O)(=O)c2ccc([N+](=O)[O-])cc2)OC1=O)N1CCOCC1 [Compound 589]	125 µg/mL (≈ 291 µM)	
CC(C)N1C[C@H](COS(=O)(=O)c2ccc([N+](=O)[O-])cc2)OC1=O [Compound 952]	32 µg/mL (≈ 92.9 µM)	
CC(C)(C)C(=O)CN1C[C@@H](COS(=O)(=O)c2ccc(Cl)c3nonc23)OC1=O [Compound 34, (S)-3-(3,3-dimethyl-2-butone)-5-(7-chloro-2,1,3-benzoxadiazole-4-sulfonyloxymethyl)-2-oxazolidinone]	250 µg/mL (≈ 579 µM)	
CC(C)(C)CC(=O)CN1C[C@@H](COS(=O)(=O)c2ccc([N+](=O)[O-])cc2)OC1=O [Compound 533]	125 µg/mL (≈ 302 µM)	
C#CCN1CC(COS(=O)(=O)c2ccc(Cl)c3nonc23)OC1=O (centres unmarked) [Compound 235]	62.5 µg/mL (≈ 168 µM)	
CCN1C[C@@H](COS(=O)(=O)c2ccc(Cl)c([N+](=O)[O-])c2)OC1=O [Compound 1210]	256 µg/mL (≈ 702 µM)	
CN(C)C(=O)CN1C[C@@H](COS(=O)(=O)c2ccc(Cl)c3nonc23)OC1=O [Compound 1026]	256 µg/mL (≈ 611 µM)	
CCOC(=O)/C=C/N1C[C@@H](COS(=O)(=O)c2ccc([N+](=O)[O-])cc2)OC1=O [Compound 1160]	128 µg/mL (≈ 320 µM)	
CC(=O)CN1C[C@@H](COS(=O)(=O)c2ccc(Cl)c3nonc23)OC1=O [Compound 1066]	256 µg/mL (≈ 657 µM)	
CC(C)N1C[C@@H](CNS(=O)(=O)c2ccc([N+](=O)[O-])cc2[N+](=O)[O-])OC1=O [Compound 870]	16 µg/mL (≈ 41.2 µM)	
